Experimental findings from the ASAP Discovery antiviral challenge data (2025) are described below.

“And” between values parts separate entries of the source, which are not always exact repeats. Equal entries are not always repeated.

For one series the following is noted: mouse; liver_microsomes.
For `CNCc1cc(-c2cc3c(N[C@H](c4ccc5c(c4)S(=O)(=O)CCC5)C(C)C)ncnc3[nH]2)co1` (racemic), the microsomal CLint was 52 µL/min/mg.
In the case of `O=C(O)c1cc(Cl)ccc1NS(=O)(=O)c1ccc(Oc2ccccc2Cl)cc1`, the microsomal CLint was 13 µL/min/mg.
The same measure, in the same setting: to `NCc1cccc(CNC(=O)[C@H](NC(=O)OCc2ccccc2)c2ccc(OCc3ccccc3)cc2)c1` (racemic) belongs 2.73 µL/min/mg; to `CNC(=O)c1cc2c(N[C@H](c3ccc4c(c3)NC(=O)CO4)C(C)C)ncnc2[nH]1` (single isomer, unassigned), 33 µL/min/mg.
The same measure, in the same setting: then `CC(C)[C@H](Nc1ncnc2[nH]c(-c3cnn(C)c3C#N)cc12)c1ccc2c(n1)NC(=O)CO2` (single isomer, unassigned), with 131 µL/min/mg and 189 µL/min/mg.
On the same count and under the same terms, to `CC(C)[C@H](Nc1ncnc2[nH]c(-c3cnn(C)c3C#N)cc12)c1ccc2c(n1)OCCO2` (racemic) belongs 139 µL/min/mg.
`O=C(Nc1cc(Br)c2c(c1)CNC2)c1cc(F)cc2[nH]ncc12` had a microsomal CLint of 145 µL/min/mg.
For the compound `CC(C)[C@H](Nc1ncnc2[nH]c(-c3cnn(CCC(N)=O)c3)cc12)c1ccc2c(c1)OCCO2` (racemic), the microsomal CLint was found to be 62 µL/min/mg.
In turn, `CC(C)[C@H](Nc1ncnc2[nH]c(-c3cnn(CC(N)=O)c3)cc12)c1ccc2c(n1)OCCO2` (racemic) displayed a microsomal CLint of 12 µL/min/mg.
Turning to `Cc1cc(CCCOc2c(C)cc(-c3noc(C(F)(F)F)n3)cc2C)on1`, the microsomal CLint was 21.5 µL/min/mg.
The same measure, in the same setting: then `CC(C)[C@H](Nc1ncnc2[nH]c(-c3cnn(C)c3)cc12)c1ccc2c(c1)S(=O)(=O)NCC2` (racemic), with 87 µL/min/mg.
Same read-out and setting: then `COc1cc(Cc2c(-c3ccc(F)cc3)noc2C)nc(N2CCNCC2)n1`, with 33 µL/min/mg; and `CNC(=O)Cn1cc(-c2cc3c(N[C@H](c4ccc5c(c4)S(=O)(=O)CCC5)C(C)C)ncnc3[nH]2)cn1` (racemic), with 77 µL/min/mg; and `CC(C)[C@H](Nc1ncnc2[nH]cc(C(N)=O)c12)c1ccc2c(c1)OCCO2` (racemic), with 142 µL/min/mg.
With `COc1ccc(C(=O)Nc2cccc(/C=C3/C(=O)NC(=O)c4ccccc43)c2)cc1`, the intrinsic clearance (microsomal CLint) came out at 127 µL/min/mg.
On the same count and under the same terms, then `Cc1nn(C)cc1-c1cc2c(N[C@H](c3ccc4c(c3)S(=O)(=O)CCC4)C(C)C)ncnc2[nH]1` (single isomer, unassigned), with 202 µL/min/mg and 390 µL/min/mg.

For another series the following is noted: mdck_mdr1.
As for `CNC(=O)Cn1cc(-c2cc3c(N[C@H](c4ccc5c(c4)OCCO5)C(C)C)ncnc3[nH]2)cn1` (racemic), the Papp worked out at 1.94 ×10⁻⁶ cm/s.
`C[C@H](C(=O)O)[C@@H](NC(=O)c1ncnc2[nH]ccc12)c1ccc(Br)cc1` (single isomer, unassigned): the Papp turned out to be 0.682 ×10⁻⁶ cm/s.
On the same count and under the same terms, to `CC(C)[C@@H](Nc1ncnc2[nH]c(-c3cnn(C)c3C#N)cc12)c1ccc2c(c1)OCCO2` belongs 5.11 ×10⁻⁶ cm/s.
`COc1ccc([C@H](Cc2nnn[nH]2)NC(=O)c2ncnc3[nH]ccc23)cc1` (single isomer, unassigned) had a Papp of 1.07 ×10⁻⁶ cm/s.
Still for that read-out and setting: to `CNC(=O)Cn1cc(-c2cc3c(N[C@H](c4ccc5c(c4)S(=O)(=O)CCC5)C(C)C)ncnc3[nH]2)cn1` (single isomer, unassigned) belongs 0.396 ×10⁻⁶ cm/s and 0.916 ×10⁻⁶ cm/s; to `COc1ccc2c(c1)CCN(c1ncnc3[nH]ccc13)[C@H]2C(C)C` (racemic), 7 ×10⁻⁶ cm/s.
For `CC(C)[C@H](Nc1ncnc2[nH]c(-c3cnn(C)c3C#N)cc12)c1ccc2c(c1)OCCO2`, the Papp was 5.56 ×10⁻⁶ cm/s.
In turn, `CC(C)[C@H](Nc1ncnc2[nH]c(-c3cnn(CC(=O)N(C)C)c3)cc12)c1ccc2c(c1)OCCO2` (racemic) came in with a Papp of 1.14 ×10⁻⁶ cm/s.
The compound `O=C(Nc1ccccc1)Nc1ccc(C(=O)NC2c3cccc(O)c3CC2C(=O)O)cc1` (stereo not given) returned a Papp of 0.7 ×10⁻⁶ cm/s.
For `CC(C)[C@H](Nc1ncnc2[nH]ccc12)c1ccc2c(c1)S(=O)(=O)CCC2` (racemic), the Papp amounted to 3.3 ×10⁻⁶ cm/s.
`CC(C)(C)[C@H](Nc1ncnc2[nH]c(-c3cnn(CC(N)=O)c3)cc12)c1ccc2c(n1)OCCO2` (single isomer, unassigned): the Papp was 1.02 ×10⁻⁶ cm/s and 1.53 ×10⁻⁶ cm/s.
Still for that read-out and setting: to `CC(C)[C@H](Nc1ncnc2[nH]c(-c3cnn(CC(N)=O)c3)cc12)c1ccc2c(c1)NC(=O)CO2` (racemic) belongs 1.36 ×10⁻⁶ cm/s; to `CC(C)[C@H](Nc1ncnc2[nH]c(-c3cnn(C)c3C#N)cc12)c1ccc2c(n1)NC(=O)CO2` (racemic), 9.83 ×10⁻⁶ cm/s; to `CC(C)[C@H](Nc1ncnc2[nH]ccc12)c1ccc2c(c1)S(=O)(=O)CCO2` (racemic), 4.4 ×10⁻⁶ cm/s.
For `CCNC(=O)c1cc2c(N[C@H](c3ccc4c(c3)S(=O)(=O)NCC4)C(C)C)ncnc2[nH]1` (racemic), the Papp worked out at 1.96 ×10⁻⁶ cm/s.
`CNC(=O)c1c[nH]c2ncnc(N[C@H](c3ccc4c(c3)NC(=O)CO4)C(C)C)c12` (racemic) displayed a Papp of 4.26 ×10⁻⁶ cm/s.
Same read-out and setting: then `CNCc1cc(-c2cc3c(N[C@H](c4ccc5c(c4)S(=O)(=O)CCC5)C(C)C)ncnc3[nH]2)co1` (racemic), with 1.61 ×10⁻⁶ cm/s; and `O=C(O)c1cc(Cl)ccc1NS(=O)(=O)c1ccc(Oc2ccccc2Cl)cc1`, with 4.01 ×10⁻⁶ cm/s.
Same read-out and setting: to `NCc1cccc(CNC(=O)[C@H](NC(=O)OCc2ccccc2)c2ccc(OCc3ccccc3)cc2)c1` (racemic) belongs 1.44 ×10⁻⁶ cm/s; to `CNC(=O)c1cc2c(N[C@H](c3ccc4c(c3)NC(=O)CO4)C(C)C)ncnc2[nH]1` (single isomer, unassigned), 1.21 ×10⁻⁶ cm/s; to `CC(C)[C@H](Nc1ncnc2[nH]c(-c3cnn(C)c3C#N)cc12)c1ccc2c(n1)NC(=O)CO2` (single isomer, unassigned), 9.35 ×10⁻⁶ cm/s and 9.64 ×10⁻⁶ cm/s.
The compound `CC(C)[C@H](Nc1ncnc2[nH]c(-c3cnn(C)c3C#N)cc12)c1ccc2c(n1)OCCO2` (racemic) registered a Papp of 12.8 ×10⁻⁶ cm/s.
`O=C(Nc1cc(Br)c2c(c1)CNC2)c1cc(F)cc2[nH]ncc12` displayed a Papp of 3.4 ×10⁻⁶ cm/s.
With `CC(C)[C@H](Nc1ncnc2[nH]c(-c3cnn(CCC(N)=O)c3)cc12)c1ccc2c(c1)OCCO2` (racemic), the Papp is 1.46 ×10⁻⁶ cm/s.
Same read-out and setting: to `CC(C)[C@H](Nc1ncnc2[nH]c(-c3cnn(CC(N)=O)c3)cc12)c1ccc2c(n1)OCCO2` (racemic) belongs 2.46 ×10⁻⁶ cm/s; to `Cc1cc(CCCOc2c(C)cc(-c3noc(C(F)(F)F)n3)cc2C)on1`, 1.42 ×10⁻⁶ cm/s.
Consider `CC(C)[C@H](Nc1ncnc2[nH]c(-c3cnn(C)c3)cc12)c1ccc2c(c1)S(=O)(=O)NCC2` (racemic), for which the Papp was 1.58 ×10⁻⁶ cm/s.
Still for that read-out and setting: to `COc1cc(Cc2c(-c3ccc(F)cc3)noc2C)nc(N2CCNCC2)n1` belongs 4.78 ×10⁻⁶ cm/s.
`CNC(=O)Cn1cc(-c2cc3c(N[C@H](c4ccc5c(c4)S(=O)(=O)CCC5)C(C)C)ncnc3[nH]2)cn1` (racemic): the Papp was 0.47 ×10⁻⁶ cm/s.
The same measure, in the same setting: to `CC(C)[C@H](Nc1ncnc2[nH]cc(C(N)=O)c12)c1ccc2c(c1)OCCO2` (racemic) belongs 11.1 ×10⁻⁶ cm/s.
With `COc1ccc(C(=O)Nc2cccc(/C=C3/C(=O)NC(=O)c4ccccc43)c2)cc1`, the Papp worked out at 2.33 ×10⁻⁶ cm/s.
Still for that read-out and setting: then `Cc1nn(C)cc1-c1cc2c(N[C@H](c3ccc4c(c3)S(=O)(=O)CCC4)C(C)C)ncnc2[nH]1` (single isomer, unassigned), with 4.36 ×10⁻⁶ cm/s and 3.69 ×10⁻⁶ cm/s.

Conditions in the next series: not given
Compound `CNC(=O)Cn1cc(-c2cc3c(N[C@H](c4ccc5c(c4)OCCO5)C(C)C)ncnc3[nH]2)cn1` (racemic) yielded a logD of 2.9.
The same measure, in the same setting: to `C[C@H](C(=O)O)[C@@H](NC(=O)c1ncnc2[nH]ccc12)c1ccc(Br)cc1` (single isomer, unassigned) belongs 0.6; to `CC(C)[C@@H](Nc1ncnc2[nH]c(-c3cnn(C)c3C#N)cc12)c1ccc2c(c1)OCCO2`, 3.4.
Same read-out and setting: then `COc1ccc([C@H](Cc2nnn[nH]2)NC(=O)c2ncnc3[nH]ccc23)cc1` (single isomer, unassigned), with -0.5; and `CNC(=O)Cn1cc(-c2cc3c(N[C@H](c4ccc5c(c4)S(=O)(=O)CCC5)C(C)C)ncnc3[nH]2)cn1` (single isomer, unassigned), with 2.4 and 2.3; and `COc1ccc2c(c1)CCN(c1ncnc3[nH]ccc13)[C@H]2C(C)C` (racemic), with 4.33.
On to `CC(C)[C@H](Nc1ncnc2[nH]c(-c3cnn(C)c3C#N)cc12)c1ccc2c(c1)OCCO2`, for which the logD amounted to 3.3.
For the compound `CC(C)[C@H](Nc1ncnc2[nH]c(-c3cnn(CC(=O)N(C)C)c3)cc12)c1ccc2c(c1)OCCO2` (racemic), the logD was 2.3.
Still for that read-out and setting: to `O=C(Nc1ccccc1)Nc1ccc(C(=O)NC2c3cccc(O)c3CC2C(=O)O)cc1` (stereo not given) belongs 0.12.
The compound `CC(C)[C@H](Nc1ncnc2[nH]ccc12)c1ccc2c(c1)S(=O)(=O)CCC2` (racemic) came in with a logD of 2.5.
On to `CC(C)(C)[C@H](Nc1ncnc2[nH]c(-c3cnn(CC(N)=O)c3)cc12)c1ccc2c(n1)OCCO2` (single isomer, unassigned), for which the logD was 2.7 and 2.9.
The same measure, in the same setting: to `CC(C)[C@H](Nc1ncnc2[nH]c(-c3cnn(CC(N)=O)c3)cc12)c1ccc2c(c1)NC(=O)CO2` (racemic) belongs 2.5.
Still for that read-out and setting: to `CC(C)[C@H](Nc1ncnc2[nH]c(-c3cnn(C)c3C#N)cc12)c1ccc2c(n1)NC(=O)CO2` (racemic) belongs 3.7.
On to `CC(C)[C@H](Nc1ncnc2[nH]ccc12)c1ccc2c(c1)S(=O)(=O)CCO2` (racemic), for which the logD was 2.6.
In the case of `CCNC(=O)c1cc2c(N[C@H](c3ccc4c(c3)S(=O)(=O)NCC4)C(C)C)ncnc2[nH]1` (racemic), the logD was found to be 2.6.
In turn, `CNC(=O)c1c[nH]c2ncnc(N[C@H](c3ccc4c(c3)NC(=O)CO4)C(C)C)c12` (racemic) registered a logD of 3.2.
The compound `CNCc1cc(-c2cc3c(N[C@H](c4ccc5c(c4)S(=O)(=O)CCC5)C(C)C)ncnc3[nH]2)co1` (racemic) displayed a logD of 2.1.
For the compound `O=C(O)c1cc(Cl)ccc1NS(=O)(=O)c1ccc(Oc2ccccc2Cl)cc1`, the log distribution coefficient (logD) was determined as 3.
As for `NCc1cccc(CNC(=O)[C@H](NC(=O)OCc2ccccc2)c2ccc(OCc3ccccc3)cc2)c1` (racemic), the logD amounted to 2.7.
On the same count and under the same terms, to `CNC(=O)c1cc2c(N[C@H](c3ccc4c(c3)NC(=O)CO4)C(C)C)ncnc2[nH]1` (single isomer, unassigned) belongs 2.9.
Same read-out and setting: to `CC(C)[C@H](Nc1ncnc2[nH]c(-c3cnn(C)c3C#N)cc12)c1ccc2c(n1)NC(=O)CO2` (single isomer, unassigned) belongs 3.7; to `CC(C)[C@H](Nc1ncnc2[nH]c(-c3cnn(C)c3C#N)cc12)c1ccc2c(n1)OCCO2` (racemic), 3.4; to `O=C(Nc1cc(Br)c2c(c1)CNC2)c1cc(F)cc2[nH]ncc12`, 1.8.
In the case of `CC(C)[C@H](Nc1ncnc2[nH]c(-c3cnn(CCC(N)=O)c3)cc12)c1ccc2c(c1)OCCO2` (racemic), the logD was 3.
Still for that read-out and setting: then `CC(C)[C@H](Nc1ncnc2[nH]c(-c3cnn(CC(N)=O)c3)cc12)c1ccc2c(n1)OCCO2` (racemic), with 2.4; and `Cc1cc(CCCOc2c(C)cc(-c3noc(C(F)(F)F)n3)cc2C)on1`, with 4.2; and `CC(C)[C@H](Nc1ncnc2[nH]c(-c3cnn(C)c3)cc12)c1ccc2c(c1)S(=O)(=O)NCC2` (racemic), with 3.2.
The same measure, in the same setting: to `COc1cc(Cc2c(-c3ccc(F)cc3)noc2C)nc(N2CCNCC2)n1` belongs 2.1; to `CNC(=O)Cn1cc(-c2cc3c(N[C@H](c4ccc5c(c4)S(=O)(=O)CCC5)C(C)C)ncnc3[nH]2)cn1` (racemic), 2.4; to `CC(C)[C@H](Nc1ncnc2[nH]cc(C(N)=O)c12)c1ccc2c(c1)OCCO2` (racemic), 3.2.
As for `COc1ccc(C(=O)Nc2cccc(/C=C3/C(=O)NC(=O)c4ccccc43)c2)cc1`, the logD is 3.6.
As for `Cc1nn(C)cc1-c1cc2c(N[C@H](c3ccc4c(c3)S(=O)(=O)CCC4)C(C)C)ncnc2[nH]1` (single isomer, unassigned), the pH-dependent lipophilicity (logD) was 3.1 and 3.4.

In general, microsomal CLint refers to the rate of metabolic loss divided by the concentration. The low end stands for slow turnover, the high end for rapid turnover. As usually defined, the Papp is a coefficient for how fast a substance crosses the barrier. A word on the logD: it is the decadic logarithm of the distribution of all forms, ionised or not, between an organic phase and buffer at a given pH. Low values mean lower lipophilicity, high ones higher lipophilicity.
